For one molecule, IC50 and Kd results are on record in article PMC7242711, “An integrated approach to unravel a crucial structural property required for the function of the insect steroidogenic Halloween protein Noppera-bo” (The Journal of Biological Chemistry, 2020).

Some results are limits rather than exact numbers.

Assay [1] concerns the target T1, AgNobo (Anopheles gambiae, UniProt Q8WQJ5).
T1 construct: gene GSTe8; full-length CDS, pCold-III, N-terminal MNHKV kept; E. coli BL21(DE3)
T1 sequence (Q8WQJ5 1-217): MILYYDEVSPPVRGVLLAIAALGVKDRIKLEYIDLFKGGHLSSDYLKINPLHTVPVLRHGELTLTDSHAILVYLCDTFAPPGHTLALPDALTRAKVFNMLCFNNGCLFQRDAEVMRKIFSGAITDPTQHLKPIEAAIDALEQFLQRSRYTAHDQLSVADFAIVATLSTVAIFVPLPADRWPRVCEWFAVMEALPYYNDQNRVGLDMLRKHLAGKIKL
The assay can be described thus: fluorogenic GSH conjugation assay with […],4-DNADCF. The format is biochemical.

The target of assay [2] is T2, DmNobo (Drosophila melanogaster, UniProt Q7JYX0, D113A).
T2 construct: gene GstE14; full-length CDS, pCold-III, N-terminal translation enhancing element MNHKV kept; E. coli BL21(DE3); homodimer
In words: fluorogenic GSH conjugation assay with […],4-DNADCF. The format is biochemical.

The target in another assay is T3, DmGSTE6 (Drosophila melanogaster, UniProt A1ZB71).
T3 construct: gene GstE6; full-length CDS, pCold-III, N-terminal MNHKV kept; E. coli BL21(DE3)
T3 sequence (A1ZB71 1-222): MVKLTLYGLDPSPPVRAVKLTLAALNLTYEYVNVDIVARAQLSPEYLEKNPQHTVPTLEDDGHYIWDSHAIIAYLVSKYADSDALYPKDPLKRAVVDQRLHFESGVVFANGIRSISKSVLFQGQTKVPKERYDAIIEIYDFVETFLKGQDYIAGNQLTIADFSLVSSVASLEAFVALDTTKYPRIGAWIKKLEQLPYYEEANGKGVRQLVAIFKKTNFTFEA
The assay can be described thus: fluorogenic GSH conjugation assay with […],4-DNADCF. The format is biochemical.

Assay [3] concerns the target T4, AgNobo (Anopheles gambiae, UniProt Q8WQJ5, D111A).
T4 construct: gene GSTe8; full-length CDS, pCold-III, N-terminal MNHKV kept; E. coli BL21(DE3)
T4 sequence (Q8WQJ5 1-217 D111A): T1 sequence (Q8WQJ5 1-217)
In words: fluorogenic GSH conjugation assay with […],4-DNADCF. The format is biochemical.

Assay [4] concerns the target T5, DmNobo (Drosophila melanogaster, UniProt Q7JYX0).
T5 construct: gene GstE14; full-length CDS, pCold-III, N-terminal translation enhancing element MNHKV kept; E. coli BL21(DE3); homodimer
In words: SPR, Biacore T200, protein immobilised on CM5 chip by amine coupling. The format is binding. An excerpt:
SPR, Biacore T200, protein immobilised on CM5 chip by amine coupling on DmNobo | Kd values between DmNobo WT and EST in the presence or absence of GSH were […]
On the technique in general: Surface plasmon resonance follows binding to a sensor surface in real time, without labels.

The target in assay [5] is T5, DmNobo. In words: fluorogenic GSH conjugation assay with […],4-DNADCF. The note with it: 1 mM GSH, 1 μM 3,4-DNADCF (final, after equal-volume mixing), 100 mM sodium phosphate pH 6.5, 0.01% Tween 20; H-site. The format is biochemical.
In the next assay the target is T6, DmGSTE9 (Drosophila melanogaster, UniProt A1ZB74).
T6 construct: gene GstE9; full-length CDS, pCold-III, N-terminal MNHKV kept; E. coli BL21(DE3)
T6 sequence (A1ZB74 1-221): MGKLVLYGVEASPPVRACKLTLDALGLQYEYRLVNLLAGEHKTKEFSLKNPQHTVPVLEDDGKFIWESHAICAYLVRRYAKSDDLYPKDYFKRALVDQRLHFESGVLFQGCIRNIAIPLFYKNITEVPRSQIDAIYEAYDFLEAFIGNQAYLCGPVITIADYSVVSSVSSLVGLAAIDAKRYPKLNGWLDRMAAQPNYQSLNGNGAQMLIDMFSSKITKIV
The assay can be described thus: fluorogenic GSH conjugation assay with […],4-DNADCF. The format is biochemical.

T5 sequence (Q7JYX0 whole entry): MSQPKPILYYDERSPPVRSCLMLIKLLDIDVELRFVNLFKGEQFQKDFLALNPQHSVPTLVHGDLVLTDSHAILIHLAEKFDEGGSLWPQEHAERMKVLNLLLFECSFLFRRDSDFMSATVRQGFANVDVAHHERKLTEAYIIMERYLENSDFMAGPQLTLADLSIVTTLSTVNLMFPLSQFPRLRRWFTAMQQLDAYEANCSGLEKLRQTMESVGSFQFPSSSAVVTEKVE
T2 sequence (Q7JYX0 whole entry D113A): as the sequence (Q7JYX0 whole entry) above, with D113A counted along it

For `C[C@]12CC[C@@H]3c4ccc(O)cc4CC[C@H]3[C@@H]1CC[C@@H]2O` [17β-estradiol], the IC50 (commonly the point on the concentration scale where inhibition reaches its midpoint) on AgNobo [1] was 2070 nM; at DmNobo [2], over 25000 nM; against DmGSTE6 it was over 25000 nM; at AgNobo [3] it was over 25000 nM; against DmNobo [5] it was 2330 nM; on DmGSTE9 it was over 25000 nM. Further, the Kd – broadly, the free concentration of one partner at which half of the binding sites on the other are occupied at equilibrium, for simple one-to-one binding – on DmNobo [4] is 480 ± 100 nM.
